This is an account of results in patent US4127661A, “Piperazine alkanols” (Serdex - Societe d'Etudes, de Recherches, de Diffusion et …, priority 1976, dated 1978).

The LD50 is the dose expected to kill half of the subjects tested. The low end stands for greater toxicity, the high end for lower toxicity.

Counter-ions that a name gives are not always drawn.

Data set [1] relates to femoral artery. Description: Peripheral action of the compounds of Examples 1, 2 and 4 (femoral rate of flow, local peripheral resistance, blood pressure), 2.5 mg/kg. The format is in vivo, dogs. Conditions: for Femoral rate of flow: increase; for Local peripheral resistance: at 30mn, decrease. As to the method:
(§1) The tests were conducted with pentobarbital anesthetized dogs (35 mg/kg/i.v.) under artificial respiration with pentobarbital infusion (5 mg/kg/hr).
(§2) The carotid arterial pressure was recorded by means of an electromagnetic capsule connected to the carotid artery. From said determination were calculated the mean blood pressure, the systolic pressure, the diastolic pressure and the pulse pressure.
(§3) The femoral rate of flow was recorded by means of an electromagnetic sensor placed around the femoral artery. Local peripheral resistance was calculated from said parameters.

The test system of data set [2] is femoral artery. Description: Vasodilator action in anesthetized dogs (femoral rate of flow, local peripheral resistance), 5 mg/kg i.v. The format is in vivo. The following applies: 5 mg/kg intravenously. How it is done:
as §1, §2, §3
The compounds of the formula (I) were administered intravenously at a dosage of 5 mg/kg. Two tests were conducted with each compound.

The next data set is described as follows: Acute toxicity, oral. Conditions: rat, in vivo, single administration, fasted male Sprague Dawley rats, after 14 days, p = 0.05, Litchfield and Wilcoxon. How it is done:
Acute toxicity was studied orally in male Sprague Dawley rats kept fasting 24 hours prior to the test, distributed in homogeneous groups of 10 animals each.
The animals were given a single administration of the test materials and were kept under observation during 14 days.
The LD50 were determined after 14 days at a probability threshold of p = 0.05, according to the method of Litchfield and Wilcoxon.

Take `CCC(O)C(c1ccccc1)N1CCN(CCOc2ccccc2C)CC1` (stereo not shown) [Example 4, 1-(N-[2-(2-methyl-1-phenoxy)-1-ethyl]piperazino)-1-phenyl-2-butanol dihydrochloride]: in the data set with femoral artery [1] (1 hour), the “Femoral rate of flow” value is listed as over 30%. The compound also yielded a Local peripheral resistance in the data set with femoral artery [1] of 30%. In the data set on femoral artery [2], the “assessment among the compounds tested for peripheral vasodilator activity” value (“assessment among the compounds tested” for short) was “particularly valuable”. Moreover, in the data set “Acute toxicity, oral”, the LD50 at 336 h came out at 700 mg/kg.
On to `CC(=O)C(c1ccccc1)N1CCN(CCOc2ccccc2)CC1` (stereo not shown) [Example 1, 1-[N-(2-phenoxy-1-ethyl)piperazino]-1-phenylacetone], for which the “Femoral rate of flow” value in the data set on femoral artery [1] (1 hour) is over 25%. The compound further gave a Local peripheral resistance in the data set on femoral artery [1] of 20%. In addition, the “assessment among the compounds tested” value in the data set with femoral artery [2] is listed as “particularly valuable”. Further, the LD50 at 336 h in the data set “Acute toxicity, oral” stood at 800 mg/kg.
With `CC(O)C(c1ccccc1)N1CCN(CCOc2ccccc2)CC1` (stereo not shown) [Example 2, 1-[N-(2-phenoxy-1-ethyl)piperazino]-1-phenyl-2-propanol], the “Femoral rate of flow” value in the data set on femoral artery [1] (30mn) was over 15%; in the data set on femoral artery [1] (on injection (injec.)), over 100%. Moreover, the Local peripheral resistance with femoral artery [1] came out at 15%. Further, the “assessment among the compounds tested” value in the data set on femoral artery [2] is listed as “particularly valuable”. This compound yielded an LD50 at 336 h in the data set “Acute toxicity, oral” of 250 mg/kg.
